The target of data set [1] is T1, Stimulator of interferon genes protein (Homo sapiens, UniProt Q86WV6). The data set can be described thus: Binding affinity to recombinant human His-tagged STING by measuring fluorescent signals in the presence of d2 labelled STING wild type ligand by HTRF based microplate reader analysis. (In general: TR-FRET usually uses a lanthanide donor and a delayed reading to cut background.)

Data set [2] can be described thus: Solubility of the compound in DMSO at 50 to 100 uM incubated for 72 hrs. It is filed as physicochemical. Conditions: dose 50-100 µM.
The nature of data set [3]: Induction of IP-10 secretion in human THP-1 cells assessed as maximal efficacy by ELISA relative to control. It is filed as functional. (An ELISA detects its analyte on a solid surface through an enzyme-linked reagent.)
A short description of data set [4]: Activation of IRF-mediated immune response in human THP1-Dual KO-STING cells co-expressing ISRE reporter assessed as normalized luciferase gene expression by measuring relative luciferase units at 50 uM incubated for 24 hrs by QUANTI Luc based microplate reader method. The data set is classed as functional.
In data set [5] the test system is RAW264.7. In words: Induction of IL-6 secretion in mouse RAW264.7 cells at 2 uM incubated for 24 hrs by ELISA. It is filed as functional, cell-based.
In data set [6] the test system is RAW264.7. The data set can be described thus: Induction of IP-10 secretion in mouse RAW264.7 cells at 0.64 to 10000 nM by ELISA. Particulars: dose 0.64-10000 nM. It is filed as functional, cell-based.
The subject of a further data set is PBMC. The data set can be described thus: Induction of IFN-beta secretion in human PBMC cells at 1.6 to 1000 nM by ELISA. Conditions: dose 1.6-1000 nM. It is filed as functional, cell-based.
Data set [7] deals with RAW264.7. In words: Induction of TNF-alpha secretion in mouse RAW264.7 cells at 0.625 uM incubated for 24 hrs by ELISA. The data set is classed as functional, cell-based.
Data set [8] deals with Nuclear factor NF-kappa-B complex (Homo sapiens) (UniProt Q00653+P19838+Q04206). The data set can be described thus: Activation of NF-kappaB mediated pro-inflammatory effector proteins in human THP-1 cells at 2 to 10 nM incubated for 4 hrs by western blot analysis. The data set is classed as cell-based. Particulars: filed as activator, dose 2-10 nM. For orientation: In western blotting, separated proteins are transferred to a membrane and probed.

For data set [9], the system named is RAW264.7. In words: Activation of NF-kappaB mediated pro-inflammatory effector proteins in mouse RAW264.7 cells at 100 to 500 nM for incubated for 3 hrs by western blot analysis. It is filed as cell-based. Conditions: filed as activator, dose 100-500 nM.
Data set [10] in a line: Terminal half life in BALB/c mouse at 3 mg/kg, iv by LC-MS/MS analysis. The data set is classed as ADME, organism-based. Conditions: in vivo, read-out: beta t1/2 (converted).
Data set [11] is described as follows: Volume of distribution at steady state in BALB/c mouse at 3 mg/kg, iv by LC-MS/MS analysis. It is filed as ADME, organism-based. Conditions: in vivo, read-out: Vdss.
The nature of data set [12]: Clearance in BALB/c mouse at 3 mg/kg, iv by LC-MS/MS analysis. The data set is classed as ADME, organism-based. Conditions: BALB/c, in vivo.
A short description of data set [13]: AUClast in BALB/c mouse at 3 mg/kg, iv by LC-MS/MS analysis. It is filed as ADME, organism-based. Details: time 0 - last, dose 3 mg/kg, route iv. Particulars: in vivo.
A short description of data set [14]: AUCinfinity in BALB/c mouse at 3 mg/kg, iv by LC-MS/MS analysis. The data set is classed as ADME, organism-based. Details: time infinity, dose 3 mg/kg, route iv. Conditions: BALB/c, in vivo.
In data set [15] the test system is CT26. The data set can be described thus: Antitumor immunity activity against mouse CT26 cells xenografted in BALB/c mouse model assessed as tumor growth inhibition at 1.5 mg/kg, iv measured after 8 days. Particulars: time 8.0 day. It is filed as functional, organism-based.
Data set [16] can be described thus: Toxicity in BALB/c mouse xenografted with mouse CT26 cells assessed as effect on body weight at 1.5 mg/kg, iv measured after 8 days. The data set is classed as organism-based. Conditions: in vivo, 192 h, time 8 day.
The subject of data set [17] is CT26. The data set can be described thus: Immunological memory derived cancer inhibition in mouse CT26 cells inoculated in 1.5 mg/kg, iv for 8 days treated/cured BALB/c mouse model assessed as tumor recurrence followed by re-inoculation of cells. The data set is classed as functional, organism-based. Particulars: time 8.0 day.
Data set [18] relates to CT26. The data set can be described thus: Antitumor immunity activity against mouse CT26 cells xenografted in BALB/c mouse model assessed as tumor growth inhibition at 0.015 mg/kg, iv measured after 8 days. Conditions: time 8.0 day. The data set is classed as functional, organism-based.
Data set [19] in a line: Toxicity in BALB/c mouse xenografted with mouse CT26 cells assessed as body weight loss at 0.015 mg/kg, iv measured after 8 days. It is filed as organism-based. Conditions: in vivo, 192 h, time 8 day.
Data set [20] has as its target T1, Stimulator of interferon genes protein. Conditions: THP1-Dual, filed as activator, dose 50.0 µM, time 24.0 hrs.
For the next data set, the system named is THP1-Dual. The data set can be described thus: Cytotoxicity against human wild type THP1-Dual cells assessed as residual cell viability by CellTiter96 Aqueous One Solution Cell Proliferation Assay. The data set is classed as functional. Details: concentration or dose not given beside the values.
Data set [21] can be described thus: Cytotoxicity against human THP1-Dual KO-STING cells assessed as residual cell viability by CellTiter96 Aqueous One Solution Cell Proliferation Assay. Details: concentration or dose not given beside the values. It is filed as functional.
Data set [22] concerns the target T2, Stimulator of interferon genes protein (Mus musculus) (UniProt Q3TBT3).
T2 sequence (whole entry): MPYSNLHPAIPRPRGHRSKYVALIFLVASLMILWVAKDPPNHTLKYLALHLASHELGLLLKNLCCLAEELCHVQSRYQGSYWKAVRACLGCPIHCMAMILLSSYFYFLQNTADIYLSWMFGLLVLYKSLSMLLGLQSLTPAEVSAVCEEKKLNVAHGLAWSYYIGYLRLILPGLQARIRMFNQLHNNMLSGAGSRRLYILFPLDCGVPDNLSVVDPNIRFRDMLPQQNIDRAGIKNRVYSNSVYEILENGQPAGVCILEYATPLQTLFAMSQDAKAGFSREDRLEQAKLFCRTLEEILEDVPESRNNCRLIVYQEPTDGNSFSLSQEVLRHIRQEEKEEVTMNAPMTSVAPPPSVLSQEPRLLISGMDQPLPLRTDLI
The data set can be described thus: Activation of STING mediated immune response in mouse RAW264.7 cells assessed as induction of IFNbeta secretion at 5000 to 20000 nM measured after 24 hrs by ELISA. The data set is classed as cell-based. Conditions: filed as activator, dose 5000-20000 nM.

Data set [23] deals with T1, Stimulator of interferon genes protein. The data set can be described thus: Activation of STING mediated immune response in human THP-1 cells assessed as induction of IP-10 secretion at 500 to 5000 nM measured after 24 hrs by ELISA. The data set is classed as cell-based. Conditions: filed as activator, dose 500-5000 nM.
The target is the same in data set [24]. The data set can be described thus: Activation of STING mediated immune response in human THP-1 cells assessed as induction of IFNbeta secretion at 500 to 5000 nM measured after 24 hrs by ELISA. Conditions: filed as activator, dose 500-5000 nM. It is filed as cell-based.
The target of data set [25] is T2, Stimulator of interferon genes protein (Mus musculus). The data set can be described thus: Activation of STING mediated immune response in mouse RAW264.7 cells assessed as induction of IP-10 secretion at 5000 to 20000 nM measured after 24 hrs by ELISA. It is filed as cell-based. Particulars: filed as activator, dose 5000-20000 nM.

Structures are written as SMILES. Activity calls are given as the source filed them. The rule behind the calls is not given here.

The IC50 is the point on the concentration scale where inhibition reaches its midpoint. A word on the Emax: it is the greatest response seen or fitted, relative to the assay's reference. A word on the clearance: it is a measure of how efficiently the substance is removed, as volume per time. In general, AUC(0-t) refers to exposure summed from dosing to a finite time, without extrapolation to infinity. The AUC(0-inf) is the area under the concentration-time curve extrapolated to infinity.

T1 sequence (Q86WV6 whole entry): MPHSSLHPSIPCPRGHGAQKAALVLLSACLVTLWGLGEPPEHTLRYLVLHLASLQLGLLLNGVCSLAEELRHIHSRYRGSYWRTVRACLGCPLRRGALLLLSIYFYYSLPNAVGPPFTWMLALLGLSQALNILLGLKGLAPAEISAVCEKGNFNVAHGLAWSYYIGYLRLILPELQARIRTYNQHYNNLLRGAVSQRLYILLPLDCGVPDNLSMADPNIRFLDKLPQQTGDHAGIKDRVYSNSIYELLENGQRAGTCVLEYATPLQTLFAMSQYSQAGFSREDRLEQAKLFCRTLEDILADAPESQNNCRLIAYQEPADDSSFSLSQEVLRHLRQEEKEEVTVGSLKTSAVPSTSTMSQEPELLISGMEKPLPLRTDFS
Sequence of Nuclear factor NF-kappa-B complex (Homo sapiens) (P19838 whole entry, looked up): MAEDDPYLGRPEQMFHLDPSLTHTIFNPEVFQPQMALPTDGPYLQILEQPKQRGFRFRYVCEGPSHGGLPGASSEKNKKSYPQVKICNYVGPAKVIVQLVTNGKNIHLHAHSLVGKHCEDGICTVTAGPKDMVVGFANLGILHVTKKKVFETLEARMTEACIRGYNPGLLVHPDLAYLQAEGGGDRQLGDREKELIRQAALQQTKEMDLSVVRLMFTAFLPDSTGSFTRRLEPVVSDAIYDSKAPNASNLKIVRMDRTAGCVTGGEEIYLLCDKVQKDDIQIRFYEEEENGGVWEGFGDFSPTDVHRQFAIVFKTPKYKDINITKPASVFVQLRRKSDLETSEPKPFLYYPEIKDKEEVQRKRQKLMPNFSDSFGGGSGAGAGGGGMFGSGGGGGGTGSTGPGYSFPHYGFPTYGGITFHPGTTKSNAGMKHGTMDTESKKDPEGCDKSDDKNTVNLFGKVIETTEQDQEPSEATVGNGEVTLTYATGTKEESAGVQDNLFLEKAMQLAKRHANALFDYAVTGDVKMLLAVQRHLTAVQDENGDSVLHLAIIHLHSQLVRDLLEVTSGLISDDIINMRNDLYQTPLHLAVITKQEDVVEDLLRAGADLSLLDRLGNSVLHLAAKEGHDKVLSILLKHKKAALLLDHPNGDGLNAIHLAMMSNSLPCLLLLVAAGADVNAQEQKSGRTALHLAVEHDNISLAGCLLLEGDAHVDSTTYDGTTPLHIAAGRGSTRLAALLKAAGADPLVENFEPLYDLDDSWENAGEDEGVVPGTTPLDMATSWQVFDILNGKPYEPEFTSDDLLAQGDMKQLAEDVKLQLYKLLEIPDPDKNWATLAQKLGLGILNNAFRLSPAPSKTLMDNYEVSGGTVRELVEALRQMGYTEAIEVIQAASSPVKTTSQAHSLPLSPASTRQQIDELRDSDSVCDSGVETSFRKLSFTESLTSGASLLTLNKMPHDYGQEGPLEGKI
Sequence of Nuclear factor NF-kappa-B complex (Homo sapiens) (Q00653 whole entry, looked up): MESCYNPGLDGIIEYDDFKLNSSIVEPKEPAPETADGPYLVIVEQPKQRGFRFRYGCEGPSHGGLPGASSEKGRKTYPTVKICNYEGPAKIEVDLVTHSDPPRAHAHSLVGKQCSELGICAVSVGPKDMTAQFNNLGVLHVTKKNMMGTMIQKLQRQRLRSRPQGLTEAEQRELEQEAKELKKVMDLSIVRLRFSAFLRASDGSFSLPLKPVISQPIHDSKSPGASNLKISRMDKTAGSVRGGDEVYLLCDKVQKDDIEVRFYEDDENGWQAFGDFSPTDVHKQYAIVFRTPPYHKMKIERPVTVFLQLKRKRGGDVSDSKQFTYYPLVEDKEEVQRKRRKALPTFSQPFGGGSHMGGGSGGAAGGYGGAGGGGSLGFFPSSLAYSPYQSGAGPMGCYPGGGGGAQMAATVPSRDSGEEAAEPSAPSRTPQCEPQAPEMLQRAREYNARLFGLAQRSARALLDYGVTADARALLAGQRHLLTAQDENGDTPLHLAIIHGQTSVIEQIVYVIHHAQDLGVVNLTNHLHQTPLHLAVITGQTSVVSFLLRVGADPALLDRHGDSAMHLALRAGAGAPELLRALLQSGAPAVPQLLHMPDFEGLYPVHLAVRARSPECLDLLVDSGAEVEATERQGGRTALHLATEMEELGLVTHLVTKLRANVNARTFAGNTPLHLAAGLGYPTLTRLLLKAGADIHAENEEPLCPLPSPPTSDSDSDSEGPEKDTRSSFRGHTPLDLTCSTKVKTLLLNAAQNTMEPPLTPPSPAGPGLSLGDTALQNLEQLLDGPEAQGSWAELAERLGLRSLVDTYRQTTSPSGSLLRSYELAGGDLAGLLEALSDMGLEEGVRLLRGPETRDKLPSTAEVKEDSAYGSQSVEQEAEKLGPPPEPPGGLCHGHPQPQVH
Sequence of Nuclear factor NF-kappa-B complex (Homo sapiens) (Q04206 whole entry, looked up): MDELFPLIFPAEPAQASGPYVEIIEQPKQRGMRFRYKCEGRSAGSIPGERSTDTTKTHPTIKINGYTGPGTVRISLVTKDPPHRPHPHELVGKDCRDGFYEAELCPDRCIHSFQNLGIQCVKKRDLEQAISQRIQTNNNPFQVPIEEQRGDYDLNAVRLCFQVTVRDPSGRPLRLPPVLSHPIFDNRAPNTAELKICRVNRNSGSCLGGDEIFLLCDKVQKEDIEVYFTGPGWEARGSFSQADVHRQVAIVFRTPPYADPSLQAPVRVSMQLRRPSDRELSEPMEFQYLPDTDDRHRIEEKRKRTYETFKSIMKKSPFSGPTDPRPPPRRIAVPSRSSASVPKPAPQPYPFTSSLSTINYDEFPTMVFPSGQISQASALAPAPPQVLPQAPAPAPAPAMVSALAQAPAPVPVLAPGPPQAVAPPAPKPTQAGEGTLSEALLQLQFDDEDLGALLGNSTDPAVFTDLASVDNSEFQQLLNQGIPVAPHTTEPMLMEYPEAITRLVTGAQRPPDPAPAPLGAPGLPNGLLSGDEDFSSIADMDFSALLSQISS

Consider `CCn1nc(C)cc1C(=O)Nc1nc2cc(C(N)=O)ccc2n1CCCCn1c(NC(=O)c2cc(C)nn2CC)nc2cc(C(N)=O)ccc21`, for which the IC50 in data set [1] amounted to 6.16 nM. For the same molecule, the solubility result in [2] is reported as “Insoluble”.

In the case of `CCn1nc(C)cc1C(=O)NCCCOc1cc(C(N)=O)cc2nc(NC(=O)c3cc(C)nn3CC)n(C/C=C/Cn3c(NC(=O)c4cc(C)nn4CC)nc4cc(C(N)=O)cc(OC)c43)c12`, in data set [3], the Emax is 325%. The RLU in data set [4] came to 0.8; in data set [20], 100. The result (with RAW264.7 [5]; in the data set with RAW264.7 [6]; with PBMC; with RAW264.7 [7]; in [8]; in the data set with RAW264.7 [9]) was Active. Besides, the outcome with CT26 [15], with CT26 [17] and with CT26 [18] was Active. Also, the half-life in data set [10] is 1.75 h. The Vd in [11] was 1.81 L/kg. The clearance in data set [12] was 12 mL/min/kg. This molecule gave an area under the curve AUC(0-t) in data set [13] of 4240 ng·h/mL. The AUC(0-inf) in data set [14] was found to be 4300 ng·h/mL. The Activity result in data set [16] and in [19] was “Non-Toxic” in each case.

As to `CCn1nc(C)cc1C(=O)NCCCCn1c(NC(=O)c2cc(C)nn2CC)nc2cc(C(N)=O)ccc21`, the values for the RLU in [4] and in data set [20] were 0.9 and 104, respectively. For the same molecule, the values for the Activity (in the data set with THP1-Dual; in data set [21]) were 68.2% and 88.2%, respectively. For the same molecule, the half-life in data set [10] is 0.59 h. Further, the Vd in data set [11] was determined as 1.8 L/kg. In data set [12], the clearance is 158 mL/min/kg. For the same molecule, in [13], the AUC(0-t) was 310 ng·h/mL. Besides, the AUC(0-inf) in data set [14] was 320 ng·h/mL.

For `CCn1nc(C)cc1C(=O)/N=c1\[nH]c2cc(C(N)=O)ccc2n1CCCCn1/c(=N/C(=O)c2cc(C)nn2CC)[nH]c2cc(C(N)=O)ccc21`, the RLU stood at 0.8 in data set [4] and 97.8 in data set [20]. In addition, the Activity in the data set with THP1-Dual turned out to be 97.4%; in [21], 93.8%. Moreover, the outcome in data set [22], in [23], in [24] and in data set [25] was Active.

In the case of `CCn1nc(C)cc1C(=O)/N=c1\[nH]c2cc(C(N)=O)cc(OC)c2n1C/C=C/Cn1/c(=N/C(=O)c2cc(C)nn2CC)[nH]c2cc(C(N)=O)cc(OCCCN3CCOCC3)c21`, the Emax in data set [3] was 136%. Moreover, the RLU stood at 0.7 in data set [4] and 68.6 in data set [20]. Moreover, the Activity with THP1-Dual came to 83.1%. In addition, the outcome (in [8]; with RAW264.7 [9]) was Active.

Consider `CCn1nc(C)cc1C(=O)Nc1nc2cc(C(N)=O)ccc2n1CCCCCNC(=O)OC(C)(C)C`, for which the RLU in data set [4] was 0.6; in [20] it was 16.3. Also, the figures for the Activity (in the data set on THP1-Dual; in data set [21]) were 54.9% and 87%, respectively.

The record behind these values is ChEMBL document CHEMBL5154810, “Development of Potent Immune Modulators Targeting Stimulator of Interferon Genes Receptor” (J Med Chem, 2022).
